# Experimental data as given in patent US5085739A, “Separation of the propyl alcohols from water by azeotropic or extractive distillation” (priority 1991, dated 1992).
# Counter-ions that a name gives are not always drawn.
# Assays:
# [1] = vapor-liquid equilibrium still, n-propanol-water azeotrope with agent; conditions: for Relative Volatility: n-propanol from water; for liquid composition, n-propanol / liquid composition, water / vapor composition, n-propanol / vapor composition, water: butoxypropanol four hours, n-amyl acetate 14 hours
# Text: The data in Table 2, 3, 5, 6 and 7 were obtained in a vapor-liquid equilibrium still. In every case, the starting material was the propanol-water azeotrope. The relative volatilities are listed for each of the agents.
# [2] = vapor-liquid equilibrium still, isopropanol-water azeotrope with agent; conditions: for Relative Volatility: isopropanol from water, agent in vapor-liquid equilibrium still, water as overhead
# Text: In every case, the starting material was the propanol-water azeotrope. The relative volatilities are listed for each of the agents.
# [3] = glass perforated plate rectification column, n-propanol from water; format: physicochemical
# Procedure: A solution comprising 288 grams of n-propanol and 112 grams of water was placed in the stillpot of the perforated plate column. When refluxing began, an extractive agent comprising n-butyl acetate was pumped into the column at a rate of 15/min/ml. The temperature of the extractive agent as it entered the column was 85° C. After establishing the feed rate of the extractive agent, the heat input to the n-propanol-water in the stillpot was adjusted to give a total reflux rate of 40 ml/min. After two hours of operation, the overhead and bottoms samples of approximately two ml. were collected and analysed.
# Two hundred grams of the n-propanol-water azeotrope and 85 grams of n-amyl formate as the azeotrope former were charged to the 7.3 theoretical plate column and refluxed at total reflux for four hours.
# [4] = glass perforated plate rectification column (7.3 theoretical plates), isopropanol from water; format: physicochemical; conditions: for Relative Volatility: extractive mode, 2 hrs, 7.3 theoretical plates; for Weight % Isopropanol, Bottoms / Weight % Water, Bottoms / Weight % Isopropanol, Overhead / Weight % Water, Overhead: rectification column
# Procedure: A solution comprising 175 grams of isopropanol and 25 grams of water was placed in the stillpot of a 7.3 theoretical plate perforated plate column. […] The temperature of the extractive agent as it entered the column was 75° C. After establishing the feed rate of the extractive agent, the heat input to the isopropanol-water in the stillpot was adjusted to give a total reflux rate of 40 ml/min.
# After two hours of operation, the overhead and bottoms samples of approximately two ml. were collected and analysed by gas chromatography.
# [5] = as above; format: physicochemical; conditions: azeotropic
# [6] = extractive distn., water as overhead
# [7] = extractive distn., * brings n-propanol out as overhead
molecule,measurement,setting,value
"OCCCCCO [1,5-Pentanediol]",Relative Volatility,[1]; [6],1.22
same,Relative Volatility,[2],1.22
"OCCCCCCO [1,6-Hexanediol]",Relative Volatility,"[3]; extractive mode, 2 hrs",1.11
same,"Weight % Water, Bottoms",[3]; rectification column,23.6 Weight %
same,"Weight % n-Propanol, Bottoms",[3]; rectification column,76.4 Weight %
same,"Weight % Water, Overhead","[3]; rectification column, overhead",38.6 Weight %
same,"Weight % n-Propanol, Overhead","[3]; rectification column, overhead",61.4 Weight %
same,Relative Volatility,[1]; [6],1.31
CCCCO [1-Butanol],Relative Volatility,[4],1.20
same,"Weight % Isopropanol, Bottoms",[4],87.9 Weight %
same,"Weight % Water, Bottoms",[4],12.1 Weight %
same,"Weight % Isopropanol, Overhead",[4],65.3 Weight %
same,"Weight % Water, Overhead",[4],34.7 Weight %
CCC(C)O (centres unmarked) [2-Butanol],Relative Volatility,[2],1.36
CCCCCC(C)=O [2-Heptanone],Relative Volatility,[1]; [6],1.88
same,Relative Volatility,[2],1.32
CCCCCCC(C)O (centres unmarked) [2-Octanol],Relative Volatility,[2],1.30
CCCC(C)=O [2-Pentanone],Relative Volatility,[2],1.38
CCCCC(=O)CC [3-Heptanone],Relative Volatility,[1]; azeotropic distn.,4.3
CC(C)CCO [3-Methyl-1-butanol],Relative Volatility,[2],1.54
CC(=O)C(C)C [3-Methyl-2-butanone],Relative Volatility,[2],1.24
CCCCCC(=O)CC [3-Octanone],Relative Volatility,[2],1.22
CC(=O)CC(C)C [4-Methyl-2-pentanone],Relative Volatility,[4],1.45
same,"Weight % Isopropanol, Bottoms",[4],82.3 Weight %
same,"Weight % Water, Bottoms",[4],17.7 Weight %
same,"Weight % Isopropanol, Overhead",[4],23.2 Weight %
same,"Weight % Water, Overhead",[4],76.8 Weight %
same,Relative Volatility,"[3]; extractive mode, 2 hrs",1.45
same,Relative Volatility,[1]; azeotropic distn.,1.3
same,Relative Volatility,[2],1.36
CCCCCOC=O [Amyl Formate],Relative Volatility,"[3]; azeotropic mode, 4 hrs",1.23
same,"Weight % Water, Bottoms",[3]; rectification column,7.3 Weight %
same,"Weight % n-Propanol, Bottoms",[3]; rectification column,25.7 Weight %
same,"Weight % Agent, Bottoms","[3]; rectification column, azeotropic",67.0 Weight %
same,"Weight % Agent, Bottoms","[3]; rectification column, azeotropic, listed as n-amyl formate",67 Weight %
same,"Weight % Water, Overhead","[3]; rectification column, overhead",40.3 Weight %
same,"Weight % n-Propanol, Overhead","[3]; rectification column, overhead",29.9 Weight %
same,"Weight % Agent, Overhead","[3]; rectification column, overhead, azeotropic",29.8 Weight %
COc1ccccc1 [Anisole],Relative Volatility,[1]; [6],2.0
same,Relative Volatility,[2],1.54
N#Cc1ccccc1 [Benzonitrile],Relative Volatility,[1]; azeotropic distn.,1.5
CCCCOC(=O)c1ccccc1 [Butyl benzoate],Relative Volatility,[2],1.36
CCCCOC(=O)CCC [Butyl butyrate],Relative Volatility,[2],1.39
OC1CCCCCCCCCCC1 [Cyclododecanol],Relative Volatility,[1]; [6],1.43
CCOCCOCCOC(C)=O [Diethylene glycol ethyl ether acetate],Relative Volatility,[1]; [6],1.3
OCCOCCO [Diethylene glycol],Relative Volatility,[2],1.80
CCCC(=O)OCC [Ethyl butyrate],Relative Volatility,[2],1.46
O=C1OCCO1 [Ethylene carbonate],Relative Volatility,[1]; [7],1.3
CCOCCOC(C)=O [Ethylene glycol ethyl ether acetate],Relative Volatility,[1]; [6],1.37
COCCO [Ethylene glycol methyl ether],Relative Volatility,[2],1.60
OCCO [Ethylene glycol],Relative Volatility,[1]; [7],1.7
CCCCCCOC(C)=O [Hexyl acetate],Relative Volatility,[1]; azeotropic distn.,3.4
same,Relative Volatility,[2],1.31
CCCCCCO [Hexyl alcohol],Relative Volatility,[1]; [6],1.44
same,Relative Volatility,[2],1.32
CC(=O)OCC(C)C [Isobutyl acetate],"Weight % Water, Bottoms",[3]; rectification column,58.8 Weight %
same,"Weight % n-Propanol, Bottoms",[3]; rectification column,41.2 Weight %
same,"Weight % Water, Overhead","[3]; rectification column, overhead",26.1 Weight %
same,"Weight % n-Propanol, Overhead","[3]; rectification column, overhead",73.9 Weight %
CCCC(=O)OCC(C)C [Isobutyl butyrate],Relative Volatility,[1]; azeotropic distn.,1.2
CC(C)COC(=O)C(C)C [Isobutyl isobutyrate],Relative Volatility,[2],1.61
CC(C)CCCCCCCO [Isodecyl alcohol],Relative Volatility,[1]; [6],1.30
CC(=O)C=C(C)C [Mesityl oxide],Relative Volatility,[1]; azeotropic distn.,1.2
same,Relative Volatility,[2],1.47
COC(=O)c1ccccc1 [Methyl benzoate],Relative Volatility,[1]; [6],1.70
same,Relative Volatility,[2],1.50
CC(=O)CCC(C)C [Methyl isoamyl ketone],Relative Volatility,[2],1.32
O=[N+]([O-])c1ccccc1 [Nitrobenzene],Relative Volatility,[1]; [6],1.21
same,Relative Volatility,[2],1.32
CCC(=O)c1ccccc1 [Propiophenone],Relative Volatility,[2],1.31
CCCOCC(C)O (centres unmarked) [Propoxypropanol],Relative Volatility,"[3]; extractive mode, 2 hrs",1.21
same,"Weight % Water, Bottoms",[3]; rectification column,30 Weight %
same,"Weight % n-Propanol, Bottoms",[3]; rectification column,70 Weight %
same,"Weight % Water, Overhead","[3]; rectification column, overhead",63.5 Weight %
same,"Weight % n-Propanol, Overhead","[3]; rectification column, overhead",36.5 Weight %
CCCOC(=O)CCC [Propyl butyrate],Relative Volatility,[1]; azeotropic distn.,3.6
same,Relative Volatility,[2],1.72
same,"liquid composition, isopropanol",[2]; refluxed six hours,85.3%
same,"liquid composition, water",[2]; refluxed six hours,14.7%
same,"vapor composition, isopropanol",[2]; refluxed six hours,77.1%
same,"vapor composition, water",[2]; refluxed six hours,22.9%
CC(C)COCC(C)O (centres unmarked) [Propylene glycol isobutyl ether],Relative Volatility,[2],1.29
CCCCCCCCCCCO [Undecyl alcohol],Relative Volatility,[1]; [6],1.39
C=COCCCC [Vinyl n-butyl ether],"Weight % Isopropanol, Bottoms",[4],80.3 Weight %
same,"Weight % Water, Bottoms",[4],5.1 Weight %
same,"Weight % Isopropanol, Overhead",[4],28.5 Weight %
same,"Weight % Water, Overhead",[4],14.5 Weight %
same,"Weight % Agent, Bottoms",[5]; bottoms,14.6 Weight %
same,"Weight % Agent, Overhead",[5]; overhead,57.0 Weight %
CC(O)c1ccccc1 (stereo not drawn) [alpha-Methyl benzyl alcohol],Relative Volatility,[1]; [6],1.48
CCCCCOC(C)=O [n-Amyl acetate],"liquid composition, n-propanol",[1],67.3%
same,"liquid composition, water",[1],32.7%
same,"vapor composition, n-propanol",[1],58%
same,"vapor composition, water",[1],42%
same,Relative Volatility,[1]; azeotropic distn.,1.5
same,Relative Volatility,[2],1.30
CCCCOC(C)=O [n-Butyl acetate],Relative Volatility,"[3]; extractive mode, 2 hrs, * n-propanol comes off as overhead",1.32
same,"Weight % Water, Bottoms",[3]; rectification column,73.7 Weight %
same,"Weight % n-Propanol, Bottoms",[3]; rectification column,26.3 Weight %
same,"Weight % Water, Overhead","[3]; rectification column, overhead",27.7 Weight %
same,"Weight % n-Propanol, Overhead","[3]; rectification column, overhead",72.3 Weight %
same,Relative Volatility,[1]; [7],1.7
same,Relative Volatility,[2],1.28
CCCCCCCCCCO [n-Decanol],Relative Volatility,[2],1.38
CCCCCCOC=O [n-Hexyl formate],Relative Volatility,[2],1.52
Butoxypropanol,"Weight % Water, Bottoms",[3]; rectification column,15.9 Weight %
same,"Weight % n-Propanol, Bottoms",[3]; rectification column,84.1 Weight %
same,"Weight % Water, Overhead","[3]; rectification column, overhead",50.1 Weight %
same,"Weight % n-Propanol, Overhead","[3]; rectification column, overhead",49.9 Weight %
same,"liquid composition, n-propanol",[1],77.2%
same,"liquid composition, water",[1],22.8%
same,"vapor composition, n-propanol",[1],60.5%
same,"vapor composition, water",[1],39.5%
